Measurements from US8956824B2, “Methods for identifying allosteric modulators of ship polypeptides” (British Columbia Cancer Agency Branch, priority 2006, dated 2015).
“Also recorded” adds a separate entry of the source.

Columns and labels:
J16 cells = assay: Inositol phospholipid analysis in LPS-stimulated macrophages; assay type: cell-based, mouse
Protocol: Inositol phospholipid analysis. J16 cells, a macrophage cell line immortalized from C57B16 mice, were grown in 10% FCS in IMDM supplemented with 10 μM 2-mercaptoethanol, 150 μM monothioglycolate (MTG) and 1 mM glutamine. 5×10^6 cells were plated the night before in 10 cm tissue culture dishes. The next day, cells were washed three times with phosphate-free medium before being starved in phosphate free RPMI (MP Biomedicals, Irvine, Calif.) supplemented with 10% dialyzed FCS (Invitrogen, Burlington, Ont) and 1% RPMI for 2 hrs. Cells were then labeled with 1.0 mCi of ^32P-labeled orthophosphate (MP Biomedicals, Irvine, Calif.)/ml for 2 hrs at 37° C. Cells were pretreated for 30 mM with AQX-016A, LY294004 or vehicle prior to stimulation with LPS (50 ng/ml) for 15 min. Extraction of inositol phospholipids and HPLC analysis of deacylated lipids were performed as described previously (16). The amount of radioactivity contained in the elution peak for each lipid (two to five fractions) was summed to give the total counts for each lipid, and data were normalized to the first 60 fractions to adjust for fluctuations in total lipid labeling and recovery between samples. Data are expressed as the mean+/− the SEM of three independent replicates for each stimulation condition and the experiment was repeated twice.

[1] = system: SHIP1+/+ and SHIP1−/− BMMCs; assay: Intracellular signaling after FcεR1 crosslinking in BMMCs (immunoblot); assay type: cell-based, mouse; details: 10 μg/ml, 30 min; 20 ng/ml DNP-HSA 5 min
Protocol: Stimulation of BMMCs by FcεR1 crosslinking. SHIP1+/+ and SHIP1−/− BMMCs were pre-loaded overnight in BMMC medium lacking IL-3 with 0.1 μg/ml anti-DNP IgE (SPE-7, Sigma, Oakville, Ont). For calcium flux measurements, the cells were incubated with 2 μM fura 2-acetoxymethyl ester (Molecular Probes, Eugene, Oreg.) in Tyrode's buffer at 23° C. for 45 min. The cells were then washed and incubated in the presence of vehicle control, LY294002 or AQX-016A 30 min prior to stimulation with the indicated concentration of DNP-human serum albumin (DNP-HSA). Calcium influx was then monitored by spectrofluorometry as described previously (19). Experiments were repeated at least 3 times. For analysis of intracellular signaling, cells were pre-loaded with anti-DNP IgE as above, pre-treated with AQX-016A or buffer control for 30 min at 37° C. and stimulated with 20 ng/ml DNP-HSA for 5 min. Total cell lysates were then prepared and analyzed for phospho-PKB, phospho-p38MAPK, phospho-MAPK, Grb-2 (Cell Signalling, Mississauga, Ont) and SHIP1 (18) by immunoblot analysis as described previously (20). Results are representative of 3 independent experiments.

SHIP1 C2 domain = molecular target: T1, SHIP1 C2 domain (Mus musculus, UniProt Q9ES52); assay: Protein lipid overlay assay, C2 domain; assay type: binding; details: 200 μM AQX-MN100, 30 min pre-incubation
T1 construct: Recombinant SHIP1 C2 domain (amino acid residues 725 to 863); made in house; host or cells: E. coli, pET28C
T1 sequence (Q9ES52 725-863): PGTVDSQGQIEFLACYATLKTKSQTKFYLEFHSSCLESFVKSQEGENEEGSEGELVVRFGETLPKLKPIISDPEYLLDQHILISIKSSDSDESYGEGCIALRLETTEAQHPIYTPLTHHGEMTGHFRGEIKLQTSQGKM
Protocol: Protein Lipid Overlay Assays Protein Lipid Overlay assays were performed essentially as described (23) with minor modifications. Lyophilized phosphatidylinositol-3,4-bisphosphate diC16 (PIP2, Echelon Biosciences, Salt Lake City, Utah) was reconstituted in a 2:1.8 solution of methanol and water. PVDF membranes (Millipore, Missisauga, Ont) were initially wetted in methanol for 1 minute, and washed 3×5 min with water, and gently agitated in TBST buffer (20 mM Tris pH 7.5, 0.15 M NaCl (TBS) with 0.05% Tween 20) at 23° C. overnight. The treated membranes were air-dried and dilutions of reconstituted lipids were spotted in 1 μl aliquots to give the indicated amount of PIP2 per membrane spot. The membranes were dried completely and blocked with blocking buffer (3% BSA in TBS with 0.05% NaN3) for 1 h at 23° C. on a gentle shaker. Purified, recombinant C2 domain was diluted into blocking buffer (5 μM final) and treated with 200 μM AQX-MN100 or EtOH control for 30 min at 23° C. prior to overnight incubation with the PIP2 spotted membranes. The membranes were washed 10 times over 50 min in TBST buffer at 23° C. and were incubated with anti-His6 mouse IgG (Qiagen, Missisauga, Ont) for 1 hour at 23° C. with gentle rocking. […] The membranes were washed 3 times in TBST over 15 min at 23° C. and the bound proteins were detected and quantified on a Li-Cor Odyssey scanner (Lincoln, Nebr.). […]

SMILES | PIP3 levels after LPS stimulation (J16 cells; 30 min pretreatment with 5 mg/mL AQX-016A or 25 μM LY294002, LPS 15 min) | PI-3,4-P2 levels after LPS stimulation (J16 cells; 30 min pretreatment with AQX-016A or 25 μM LY294002, LPS 15 min) | phosphorylation of PKB, p38MAPK and ERK, SHIP1+/+ vs SHIP1−/− BMMCs [1] | inhibition of C2 domain binding to phosphatidylinositol lipid (PI-3,4-P2 / PIP3) (SHIP1 C2 domain)
Cc1cc(O)c(O)c2c1[C@]1(C)CC[C@H]3C(C)(C)CCC[C@]3(C)[C@H]1C2 [AQX-016A] | abolished this increase | corresponding increase | inhibited the phosphorylation of PKB, p38MAPK and ERK in SHIP1+/+ but not in SHIP1−/− | 
Cc1cc(O)cc2c1[C@]1(C)CC[C@H]3C(C)(C)CCC[C@]3(C)[C@H]1C2 [AQX-MN100] |  |  |  | could compete with PI-3,4-P2 for binding; also recorded: inhibits the binding of the C2; also recorded: is inhibited
